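Dose response: 5 concentrations. Exposure: 48 h. Format: 96-well plates. Endpoint: linear interpolation; highest concentration if not reached. Here, GI50 denotes the concentration required for 50% inhibition of growth. TGI is the concentration that stops growth completely.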
Tests used:
Test in all cases: NCI tumour cell line growth inhibition, 48 h
EKVX NSCLC = system: EKVX NSCLC
SNB-19 CNS = system: SNB-19 CNS
SK-MEL-5 melanoma = system: SK-MEL-5 melanoma
SNB-75 CNS = system: SNB-75 CNS
LOX IMVI melanoma = system: LOX IMVI melanoma
UACC-257 melanoma = system: UACC-257 melanoma
U251 CNS = system: U251 CNS
HOP-62 NSCLC = system: HOP-62 NSCLC
NCI-H460 lung = system: NCI-H460 lung
SF-295 CNS = system: SF-295 CNS

| Compound | GI50 (EKVX NSCLC) [µM] | TGI (EKVX NSCLC) [µM] | GI50 (SNB-19 CNS) [µM] | TGI (SNB-19 CNS) [µM] | GI50 (SK-MEL-5 melanoma) [µM] | TGI (SK-MEL-5 melanoma) [µM] | GI50 (SNB-75 CNS) [µM] | TGI (SNB-75 CNS) [µM] | GI50 (LOX IMVI melanoma) [µM] | TGI (LOX IMVI melanoma) [µM] | GI50 (UACC-257 melanoma) [µM] | TGI (UACC-257 melanoma) [µM] | GI50 (U251 CNS) [µM] | TGI (U251 CNS) [µM] | GI50 (HOP-62 NSCLC) [µM] | TGI (HOP-62 NSCLC) [µM] | GI50 (NCI-H460 lung) [µM] | TGI (NCI-H460 lung) [µM] | GI50 (SF-295 CNS) [µM] | TGI (SF-295 CNS) [µM] |
| --- | --- | --- | --- | --- | --- | --- | --- | --- | --- | --- | --- | --- | --- | --- | --- | --- | --- | --- | --- | --- |
| Cn1nc(-c2ccc(Cl)cc2)nc2c(=O)n(C)c(=O)nc1-2 | 1.11 | 4.21 | 3.03 | 6.73 | 0.321 | 0.878 | 2.38 | 4.68 | 0.601 | 1.61 | 0.794 | 1.54 | 0.789 | 2.62 | 0.886 | 1.75 | 1.21 | 4.94 | 0.777 | 1.81 |
| Cn1c(=O)c(NC(=O)C(Cl)(Cl)Cl)nc2ccccc21 |  | > 100 |  | > 100 |  | > 100 |  | > 100 |  | > 100 |  | > 100 |  | > 100 |  | > 100 |  | > 100 |  | > 100 |
| ON(Cc1ccccc1)C(=S)c1ccccc1 |  | > 100 |  | > 100 |  | > 100 |  | > 100 |  | > 46.9 |  | 39.4 |  | 61 |  | 42.9 |  | 22.3 |  | > 45.3 |
| N[C@@H]1C(=O)N2C(C(=O)OC(c3ccccc3)c3ccccc3)=C(CCl)CS[C@H]12 | 60.1 | > 100 | 66.7 | > 100 | 40.8 | > 100 | 47.7 | > 100 | 24.9 | 65 | > 100 | > 100 | 29.2 | > 78.9 | 63.4 | > 100 | 34 | > 100 | > 94.3 | > 100 |
| CCOc1ccc2c(c1)[n+]([O-])c(-c1ccc(Br)cc1)c(N)[n+]2[O-] |  | > 100 |  | > 100 |  | 40.9 |  | > 100 |  | > 100 |  | > 100 |  | > 100 |  | > 100 |  | > 100 |  | > 100 |
| C[N+](C)(C)CC1CCC/C1=N/O (stereo not drawn) |  | > 100 |  | > 100 |  | > 100 |  | > 100 |  | 38.4 |  | > 100 |  | > 100 |  | > 100 |  | > 100 |  | > 100 |
| C#CC[N+](C)(CC#C)CC#C |  | > 100 |  | > 100 |  | > 100 |  | > 100 |  | > 100 |  | > 100 |  |  |  | > 100 |  | > 100 |  | > 100 |
| NC1=NC(c2ccc(Cl)cc2)N(c2ccc(S(N)(=O)=O)cc2)C(N)=N1 (stereo not drawn) |  | > 100 |  | > 100 |  | > 100 |  | > 100 |  | > 100 |  | > 100 |  | > 100 |  | > 100 |  | > 100 |  | > 100 |
| CC(=O)OC1=CC2=CC[C@H]3[C@@H]4CCC(=O)[C@@]4(C)CC(=O)[C@]3(S)[C@@]2(C)CC1 |  | > 100 |  | > 100 |  | > 100 |  | > 100 |  | 36 |  | 79.6 |  | > 100 |  | > 100 |  | 69.8 |  | > 100 |
| COC(=O)C1=C(c2ccc(OC)c(OC)c2)OC(c2cc(OC)c(OC)c(OC)c2)C1 (stereo not drawn) |  | > 100 |  |  |  | > 100 |  | 25.6 |  | > 100 |  | > 100 |  | > 100 |  | 47.4 |  | > 100 |  | > 100 |
| Brc1ccc2[nH]cc(-c3nc(-c4c[nH]c5ncccc45)cs3)c2c1 | 2.13 | 18.6 | 5.29 | 19.8 | 2.97 | 12.9 | 2.08 | 13.4 | 2.46 | 11 | 2.5 | 7.26 | 3.37 | 12.8 | 3.76 | 17 | 3.12 | 10.9 | 2.74 | 7.31 |
| COC1=C(C)C(=O)c2c(c(CCCl)c3n2CCC3O)C1=O (stereo not drawn) | 2.3 | 7.69 | 0.407 | 13.6 | 0.148 | 0.291 | 0.191 | 0.628 | 0.592 | 5.23 | 0.839 | 3.45 | 0.36 | 11.9 | 0.235 | 1.83 | 0.178 | 2.79 | 0.237 | 0.779 |
| Oc1ccc(-c2nc3ccc4[nH]ncc4c3c3c2CCCC3)c(F)c1 | 3.16 | 13.5 | 3.59 | 14.2 | 2.55 | 9.26 | 2.02 | 7.05 | 2.9 | 12.4 | 1.84 | 5.34 | 1.45 | 6.36 | 1.5 | 5.47 | 2.18 | 11.1 | 3.81 | 14.3 |
